The subject of series [1] is Parastagonospora nodorum. In words: Antimicrobial activity against Septoria nodorum. The class given is functional, organism-based.
Series [2] has as its system Xanthomonas campestris. In words: Antimicrobial activity against Xanthomonas campestris DSM 2405. The class given is functional, organism-based.
Series [3] concerns HepG2. Nature of the series: Cytotoxicity against human HepG2 cells after 24 hrs by celltiter-blue assay. Type of series: functional, cell-based. For orientation: Resazurin is reduced to fluorescent resorufin, in cell work by metabolically active cells.
In series [4] the test system is Nakaseomyces glabratus. Nature of the series: Antimicrobial activity against Candida glabrata DSM 6425. The class given is functional, organism-based.
In series [5] the test system is Zymoseptoria tritici. In words: Antimicrobial activity against Septoria tritici. Type of series: functional, organism-based.
The test system of series [6] is Staphylococcus epidermidis. Nature of the series: Antimicrobial activity against Staphylococcus epidermidis DSM 20044. The class given is functional, organism-based.
Series [7] deals with Cutibacterium acnes. In words: Antimicrobial activity against Propionibacterium acnes DSM 1897. Type of series: functional, organism-based.
Series [8] has as its system Pseudomonas syringae pv. aptata str. DSM 50252. Nature of the series: Antimicrobial activity against Pseudomonas syringae pv aptata DSM 50252. The class given is functional.
Series [9] concerns Pseudomonas aeruginosa. Nature of the series: Antimicrobial activity against Pseudomonas aeruginosa DSM 50071. The class given is functional, organism-based.
In series [10] the test system is Ralstonia solanacearum. In words: Antimicrobial activity against Ralstonia solanacearum DSM 9544. The class given is functional, organism-based.
The subject of series [11] is Erwinia amylovora. In words: Antimicrobial activity against Erwinia amylovora DSM 50901. The class given is functional, organism-based.
Series [12] deals with HT-29. In words: Cytotoxicity against human HT-29 cells after 24 hrs by celltiter-blue assay. The class given is functional, cell-based.
Series [13] deals with Escherichia coli. In words: Antimicrobial activity against Escherichia coli K-12 DSM 498. Type of series: functional, organism-based.
Series [14] has as its system Pseudomonas fluorescens. Nature of the series: Antimicrobial activity against Pseudomonas fluorescens NCIMB 10586. The class given is functional, organism-based.
Series [15] concerns Mammaliicoccus lentus. In words: Antimicrobial activity against Staphylococcus lentus DSM 6672. The class given is functional, organism-based.
A short description of series [16]: Cytotoxicity against mouse NIH/3T3 cells after 24 hrs by celltiter-blue assay. Type of series: cell-based. The following applies: nih3t3, 24 h.
Series [17] deals with Glycogen synthase kinase-3 beta (Homo sapiens, UniProt P49841). In words: Inhibition of GSK3-beta by luminescent assay.
The subject of series [18] is Bacillus subtilis. Nature of the series: Antimicrobial activity against Bacillus subtilis DSM 347. Type of series: functional, organism-based.

Calls of active or inactive are those of the source. The rule behind the calls is not given here.

Chain of Glycogen synthase kinase-3 beta (P49841 whole entry): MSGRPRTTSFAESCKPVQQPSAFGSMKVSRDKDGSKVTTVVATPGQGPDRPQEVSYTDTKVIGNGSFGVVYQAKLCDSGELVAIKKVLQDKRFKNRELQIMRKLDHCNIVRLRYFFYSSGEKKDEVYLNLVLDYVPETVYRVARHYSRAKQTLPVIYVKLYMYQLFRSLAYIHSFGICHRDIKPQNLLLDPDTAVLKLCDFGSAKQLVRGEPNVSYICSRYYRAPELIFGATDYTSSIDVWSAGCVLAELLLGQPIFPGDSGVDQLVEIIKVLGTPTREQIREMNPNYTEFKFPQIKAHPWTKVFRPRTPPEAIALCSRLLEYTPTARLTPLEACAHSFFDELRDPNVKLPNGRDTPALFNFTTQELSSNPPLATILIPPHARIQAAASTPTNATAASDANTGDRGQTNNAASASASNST

Take `O=C1OCC(Cc2ccccc2)=C1c1ccccc1`: the outcome in series [1] was Active.
`O=C1OCC(Cc2ccc(O)c(O)c2)=C1c1cc(O)cc(O)c1` [EUTYPOID E]: the outcome in series [2], in series [3], in series [4], in [5], in series [6] and in [7] was inactive. Further, the result in [8], in series [9], in series [10], in series [11], in series [12] and in [13] was inactive. For the same compound, the result in [14], in series [15] and in series [18] was inactive. Also, the Activity result in series [16] is reported as “Non-toxic”. Besides, the IC50 (in general, the concentration that gives 50% inhibition) in series [17] was 2260 nM.
`O=C1OCC(Cc2ccc(O)cc2)=C1c1ccc(O)cc1` [EUTYPOID B]: the result in series [2], in [3], in [4], in series [5], in [6] and in series [7] was inactive. The result in series [8], in [9], in series [10], in series [11], in [12] and in series [13] was inactive. Also, the result in [14], in [15] and in [18] was inactive. Moreover, the Activity entry in [16] was “Non-toxic”. Also, half-maximal inhibition in series [17] (IC50) required 780 nM.
With `O=C1OCC(Cc2ccc(O)c(O)c2)=C1c1ccc(O)cc1` [EUTYPOID C], the result in series [2], in series [3], in [4], in series [5], in [6] and in series [7] was inactive. For the same compound, the result in [8], in [9], in series [10], in [11], in series [12] and in series [13] was inactive. The result in series [14], in [15] and in series [18] was inactive. For the same compound, in series [16], the Activity result was “Non-toxic”. Also, the IC50 in [17] is 670 nM.
Consider `O=C1OCC(Cc2ccc(O)cc2)=C1c1cc(O)cc(O)c1` [EUTYPOID D], for which the result in [2], in [3], in series [4], in [5], in series [6] and in series [7] was inactive. Also, the outcome in series [8], in [9], in series [10], in series [11], in series [12] and in series [13] was inactive. Moreover, the outcome in series [14], in [15] and in series [18] was inactive. In addition, the Activity entry in series [16] is recorded as “Non-toxic”. The compound further came in with an IC50 in [17] of 4080 nM.
